Measured values: patent US10517933B2, “Method of treating androgen receptor negative prostate tumors and their metastases” (DREXEL UNIVERSITY, priority 2015, dated 2019)
“Also recorded” adds a separate entry of the source.

What was measured:
[1] = test system: AR(−)/IL1β(+) human prostate cancer cells; test: skeletal metastasis model: human prostate cancer cells inoculated via the left cardiac ventricle of mice; assay type: in vivo, mouse; details: subcutaneous anakinra from 24 hours before inoculation, then daily, FIGS. 3A-3B
Protocol: Male C.B17-SC mice (Taconic) at six to eight weeks of age were anesthetized with ketamine (80 mg/kg) and xylazine (10 mg/kg) prior being inoculated with cancer cells via the left cardiac ventricle. For anakinra treatment, animals received an initial subcutaneous dose of vehicle (PBS) or anakinra (Swedish Orphan Biovitrum) 24 hours prior to cancer cell inoculation, then additional doses at the time of xenograft and daily thereafter until sacrifice.
Prior to each weekly imaging session, animals were injected IP with 150 mg/kg D-Luciferin (PerkinElmer) and allowed to rest for ten minutes, then anesthetized using 3% isoflurane and transferred to the chamber of an IVIS Lumina XR (PerkinElmer), where they received 2% isoflurane throughout image acquisition. […]
Fluorescent images of skeletal metastases were collected as described in Liu et al., 2013, Cancer Res. 73:3297-305. In experiments assessing arrival/colonization of the bone, animals were sacrificed and femora and tibia were imaged and processed using Nuance software and a standardized spectral library and total GFP-positive DTCs counted in the knee joint of each animal. Lung tissues from the same animals were sectioned at 80 μm at intervals across the organ and images of five random fields analyzed as described. […]

[2] = test system: human bone mesenchymal stem cells; test: induction of Carcinoma Associated Fibroblasts phenotype in human bone mesenchymal stem cells by IL1β or PC3-ML conditioned medium; assay type: cell-based; details: hMSCs exposed to IL1β or conditioned medium from PC3-ML cells
Protocol: DU-145, 22Rv1. LNCaP, and VCaP human prostate cancer cell lines were purchased from ATCC: the PC3-ML cell line was derived from the parental PC-3 cell line as described in Wang M, Stearns M E, Isolation and characterization of PC-3 human prostatic tumor sublines which preferentially metastasize to select organs in S.C.I.D. mice. Differentiation. 1991; 48:115-25. All cell lines were authenticated by short tandem repeat profiling by IDEXX Radil and/or DDC Medical. Cells were cultured in Dulbecco's Modified Eagle Medium (DU-145, VCaP, and PC3-ML) or RPMI-1460 (22Rv1 and LNCaP) containing 10% fetal bovine serum and 0.1% gentamicin. Bone marrow-derived Human Mesenchymal Stem cells (Lonza) were used between passage 5 and 8 and cultured in α-MEM supplemented with 10% FBS, 1 ng/ml bFGF (R&D), and 0.1% gentamicin. Each cell line was cultured at 37° C. and 5% CO2 and discarded 10 passages following thawing. […]
Cell lysates were obtained and Western Blotting analysis was performed as previously described. […] Chemiluminescent signals were obtained using SuperSignal West Femto substrate (Pierce) and detected with the Fluorochem 8900 imaging system and related software. […]

interleukin-1β = details: cited from earlier work
[3] = test system: mouse models of acute gout; details: in vivo; cited from earlier work
[4] = test system: other members of the interleukin-1 family, including interleukin-1 alpha; details: cited from earlier work

anakinra: recombinant, non-glycosylated version of human IL1 receptor antagonist prepared from cultures of genetically modified E. coli
progression at the skeletal level of human prostate cancer cells (bone metastatic tumor burden) [1]: significantly impaired; also recorded: much less prone to skeletal colonization | morphological changes in alpha smooth muscle actin (CAF phenotype) ([2]; FIG. 4A): inhibited | expression of the S100 A4 marker (CAF phenotype) ([2]; FIG. 4B): inhibited

CSc1ccc(-c2nn(Cc3ccccc3)c(=O)cc2-c2ccc(Cl)cc2)cc1 [K-832, 2-benzyl-5-(4-chlorophenyl)-6-[4-(methylthio)phenyl]-2H-pyridazin-3-one]
inhibitory activity against production of interleukin-1β (interleukin-1β): high inhibitory activity

XOMA-052: a potent anti-IL1β humanized neutralizing antibody
activity in mouse models of acute gout [3]: active

Canakinumab: a human monoclonal antibody targeted at interleukin-1 beta
cross-reactivity with other members of the interleukin-1 family [4]: no cross-reactivity
